This is an account of results in patent US11896589B2, “Diazinyl amino acridines and medical uses thereof” (MyCural Therapeutics AB, priority 2018, dated 2024).

The term inhibition denotes the percentage by which the read-out fell short of the control. Usually IC50 stands for the point on the concentration scale where inhibition reaches its midpoint. The GI50 is the concentration that inhibits growth by half.

Assay [1] concerns the target T1, MYC:MAX (MYC-GLuc-C + MAX-GLuc-N) in HEK293 cells (Homo sapiens, UniProt P01106).
T1 construct: expressed in transfected cells; host or cells: HEK293 (also COS-7)
Nature of the assay: Assay 3C GLuc complementation assay. It counts as cell-based. As to the method: (§1) FIG. 4: A) Endogenous MYC:MAX (upper panel) and FRA1:JUN (lower panel) interactions as visualized as fluorescent red dots by isPLA. Nuclei were counterstained with DAPI (blue). Cells were treated with 10 μM of indicated compounds for 16 hours and subjected to isPLA using pairs of MYC and MAX and of FRA1 and JUN antibodies, respectively. As negative control, primary antibody pairs but only one oligo-conjugated secondary antibody was used. B) Quantification of MYC:MAX and C) FRA1:JUN isPLA, representing an average number of nuclear dots per cell from three microscopic fields normalized to corresponding values for DMSO-treated cells. […] 1st-4th lanes from top; coimmunoprecipitated MAX, immunoprecipitated MYC, total levels of MAX and ACTIN, respectively, as determined by western blot analysis. E) MYC:MAX GLuc assay in cells. […] 24 hours later cells were treated with […] of Example 1, Example 2 and control compound for 16 hours and thereafter analyzed in a dual luciferase assay. The ratio of Gaussia/Firefly luciferase luminescence were calculated and normalized to DMSO-treated cells.
The protein fragment complementation assay using the Gaussia luciferase (GLuc) has been described (Remy, I. & Michnick, S. W. A highly sensitive protein-protein interaction assay based on Gaussia luciferase. Nat Methods 3, 977-979, doi:10.1038/nmeth979 (2006)). […] 24 hours later cells were treated with compound or DMSO. After another 17 hours the cells were harvested and lyzed in passive lysis buffer (Promega) supplemented with complete protease inhibitor (Roche). After 60 min incubation at room temperature 20 μM D-luciferin was added (substrate of Firefly luciferase) and luminescence was measured in a Lumat LB9501 (Berthold) or OmegaFluostar (BMG Labtech) luminometer. Directly after, the Gaussia luciferase substrate Coelenterazine (Promega) was added to a final concentration of 20 μM and the luciferase activity was measured. The ratio between Gaussia and Firefly luciferase values were calculated and normalized to DMSO-treated control cells.

The target of assay [2] is T2, endogenous MYC:MAX in MDA-MB231 cells (Homo sapiens, UniProt P01106).
T2 construct: endogenous in cells; host or cells: MDA-MB231
T2 sequence (P01106 whole entry): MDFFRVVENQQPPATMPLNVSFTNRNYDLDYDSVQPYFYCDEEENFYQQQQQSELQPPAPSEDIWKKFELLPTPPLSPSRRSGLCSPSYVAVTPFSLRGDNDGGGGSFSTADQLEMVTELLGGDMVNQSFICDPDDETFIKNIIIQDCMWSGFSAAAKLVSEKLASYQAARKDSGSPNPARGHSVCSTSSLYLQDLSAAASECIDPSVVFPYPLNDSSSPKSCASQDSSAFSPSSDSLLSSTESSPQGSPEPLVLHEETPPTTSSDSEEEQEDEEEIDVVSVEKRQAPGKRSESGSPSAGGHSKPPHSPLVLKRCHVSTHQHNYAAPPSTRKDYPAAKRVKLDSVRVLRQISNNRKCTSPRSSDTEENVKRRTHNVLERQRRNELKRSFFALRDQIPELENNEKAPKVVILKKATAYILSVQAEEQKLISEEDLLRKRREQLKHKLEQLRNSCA
The assay is described as follows: Assay 3B CoIP of endogenous MAX with MYC. In kind it is cell-based. The procedure:
as §1
Coimmunoprecipitation of endogenous MYC:MAX proteins were essentially carried out as in Bahram, F. et al. Interferon-gamma-induced p27KIP1 binds to and targets MYC for proteasome-mediated degradation. Oncotarget 7, 2837-2854, doi:10.18632/oncotarget.6693 (2016). […]

Assay [3] has as its system MYC null (H015.19) Rat1 fibroblast cells. The assay is described as follows: Assay 5B Tgr cell growth (WST-1), MYC null. The following applies: 48 hours. In kind it is cell-based, rat. The procedure:
(§2) FIG. 6: A-B) Neuroblastoma cell lines with (SK-N-DZ, Kelly and IMR-32) or without (SK-N-F1, SK-N-RA and SK-N-AS) MYCN-amplification were exposed to different concentrations of Example 1, Example 2 and control compound, respectively, for 48 hours. Cell growth and viability was estimated by measuring metabolic activity. C) Growth of TGR-1 (wt), HO15.19 (MYC knockout) and HOmyc3 (MYC reconstituted HO15.19) Rat1 fibroblasts, as measured by the WST-1 assay after treatment with Example 1. Data are shown as mean±standard deviation of 3-5 biological experiments, each with 3 technical repeats.
(§3) Assay 5B: Tgr Cell Growth
(§4) Tgr cells were treated at 37° C. and 5% CO2 at 48 hours with Example and Example 2. H015.19 is a MYC null rat cell line derived from Tgr1 (parental cells), while H0Myc3 cells were generated from the MYC null cells by reconstitution of a MYC gene(Mateyak, M. K., Obaya, A. J., Adachi, S. & Sedivy, J. M. Phenotypes of c-Myc-deficient rat fibroblasts isolated by targeted homologous recombination. Cell Growth Differ 8, 1039-1048 (1997)).
Background: Tetrazolium assays rely on reduction of a dye to a coloured formazan, in cell work by metabolically active cells.

Assay [4] concerns the target T3, endogenous MYC:MAX interaction in MDA-MB231 cells (Homo sapiens, UniProt P01106).
T3 construct: endogenous in cells; host or cells: MDA-MB231
The assay is described as follows: Assay 3A isPLA assay, MYC:MAX. In kind it is cell-based.
Excerpt: as §1, with “Cells were treated with 10 μM of indicated compounds for 16 hours and subjected to isPLA using pairs of MYC and MAX and of FRA1 and JUN antibodies, respectively.” left out
Assay 3A: The isPLA Assay
Identification of endogenous protein-protein interactions in fixed cells and has been described (Soderberg, O. et al., Nat Methods, 3, 995-1000 (2006)). […] Endogenous MYC:MAX or FRA-1:JUN protein interactions were visualized by fluorescence microscopy as fluorescent dots mainly localized in the cell nucleus. […]

Assay [5] concerns Tgr and H0Myc3 Rat1 fibroblast cells. Nature of the assay: Assay 5B Tgr cell growth (WST-1), MYC expressing. The note with it: 48 hours. In kind it is cell-based, rat. The procedure:
as §2, §3, §4

Setting [6] is: Rattus norvegicus, Fibroblast, first run.

Each structure is given as a SMILES string.

T1 sequence (P01106 whole entry): as above
T3 sequence (P01106 whole entry): as above

For the molecule `CCOc1ccc2nc3cc(/N=N/c4ccc(N)nc4N)ccc3c(N)c2c1` [Example 1, 3-((9-amino-7-ethoxyacridin-3-yl)diazenyl)pyridine-2,6-diamine sulphate hydrate], the inhibition at 10 µM amounted to 50% in assay [1] (HEK293) and 95% in assay [4] (MDA-MB-231). For the same molecule, in assay [1] (exogenous MYC:MAX), the half-inhibitory concentration (IC50) was 10 µM. Besides, in assay [2] (5 μM, 3.5 hours), the “reduction of MYC:MAX protein interaction vs DMSO treated cells (CoIP)” value is recorded as “More than Half”. Besides, in assay [2] (MDA-MB-231, read-out: CoIP inhibition at 10 μM), the inhibition at 5 µM is > 70%. In assay [3], the “growth of the MYC null cells” value is “did not significantly affect”. The 50% growth inhibitory concentration (GI50) is > 10 µM in assay [3] (setting [6]) and 4 µM in assay [5] (setting [6]). For the same molecule, in assay [4] (10 μM, 24 hours), the “isPLA signals, % of DMSO control” value is given as 7%. In addition, the “growth of wt and reconstituted cells” value in assay [5] is “strongly inhibited”.
